Results on four compounds are retold here after patent US20240197729A1, “ALK-5 Inhibitors and Uses Thereof” (Sumitomo Pharma Oncology, Inc., priority 2021, published 2024).

The test system of data set [1] is phospho-SMAD-2 (Ser465/Ser467). Nature of the data set: A549 xenograft assay, p-SMAD2. The data set is classed as in vivo, mice. Conditions: for Average % p-SMAD2 (Ser 465/467) of vehicle: tumors 4 h after dosing; for efficacious dose derived from p-SMAD2 inhibition in the A549 xenograft mouse model: per oral gavage. The text has this:
To test compounds for inhibition of in vivo on-target activity (ALK5/TGF-bR1 inhibition) as well as potential Janus Kinase (JAK) signaling off-target activity, the A549 murine xenograft model was utilized. An ALK5 inhibitor (e.g., vactosertib) is expected to reduce the amount of the TGF-beta signaling molecule phospho-SMAD-2 (pSMAD2) in the A549 xenograft cells. The TGF-beta-mediated phosphorylation of SMAD2 in A549 cells takes place at amino acid residue four hundred and sixty-five and four hundred and sixty-seven (both are serine residues). A JAK inhibitor (e.g., ruxolitinib) is expected to reduce the phosphorylation of signal transducer and activator of transcription (STAT) proteins such as STAT3 at amino acid residue 705 (tyrosine).
At eight weeks of age, female athymic nude mice (purchased from Charles River) were injected with approximately 3.5 million A549 cells (ATCC, CCL-185). Specifically, cells were harvested and resuspended in plain RPMI media (no phenol red added) and Matrigel (Corning 356237) at a one to one ratio, and two hundred-microliters were injected into the right hind flank of each mouse. Tumors were measured every three days by caliper and as tumors reached an average of seventy-eighty millimeters cubed, mice were randomized in groups of three. All compounds were resuspended in 1-methyl-2-pyrrolidinone (Sigma 494496) (10%) plus 20% Solutol (Sigma 42966) in water (90%). Vactosertib and ruxolitinib were included as controls as ALK5 signaling inhibitor and JAK signaling inhibitor, respectively. Both controls were given at seventy-five milligrams per kilogram to three mice. The drug suspensions were sonicated for fifteen minutes to generate a fine particle suspension before being given to the mice. Mice were dosed (per oral gavage) with drug at one hundred, seventy-five, fifty, or ten milligrams per kilogram, with three mice per group. A vehicle control group with three mice was used to establish the baseline level of phospho-SMAD-2 in the tumor xenograft.
Four hours after drug administration, tumors were harvested, snap frozen and stored at negative eighty degrees Celsius until further processing. The phospho-SMAD-2 levels were determined using the Bio-Plex Pro™ Phospho-Smad2 (Ser465/Ser467) Set (BioRad 171V50019M). The phospho STAT3 levels were determined using the bead/antibody set from the MILLIPLEXMAP STAT Cell Signaling Magnetic Bead 5-Plex Kit (Millipore 48-610MAG). Both phospho SMAD-2 levels and phospho STAT3 levels were normalized to ß-Tubulin (MILLIPLEX MAP ß-Tubulin Total Magnetic Bead MAPmate™, Millipore 46-713MAG) or GAPDH (MILLIPLEX MAP GAPDH Total Magnetic Bead MAPmate™, Millipore 46-667MAG) levels from each sample. All analytes were analyzed in a multiplex fashion with the Bio-Plex Pro Cell Signaling Reagent Kit (BioRad 171304006M). Briefly, frozen tumor (fifteen to thirty milligrams) was lysed in 100 μl lysis buffer, processed in bead mill tube, and centrifuged. The resulting lysate was used at 1:50 dilution for the assay according to the manufacturer's instructions. Bead suspension was analyzed using the Luminex system (MAGPIX).

Data set [2] relates to phospho-SMAD2 (S465/S467). In words: Phospho-SMAD2 assay in RDSR cells. The data set is classed as cell-based. Conditions: Homo sapiens, 0.5 h, 100 ng/ml TGF-β1, 30 minutes. The text has this:
TGF-β is a pleiotropic cytokine involved in extremely conserved pathways relevant to cell growth, differentiation, and development. TGF-β signaling is triggered when the activated TGF-β homodimer binds to the TGF-β receptor 2 (TGFbR2), which in turn leads to the recruitment and phosphorylation of TGF-β receptor 1 (TGFbR1). Activated TGFbR1 phosphorylates the signal transduction molecules SMAD2 and SMAD3, which then bind to the common mediator SMAD4 and translocate to the nucleus where they alter gene transcription. In this assay, phospho-SMAD2 (S465/S467), a direct phosphorylation substrate of TGFbR1, was used as a readout of TGF-β pathway activity. Vactosertib (a TGFbR1 inhibitor available from MedChem Express HY-19928) was included as a positive control.
The RD SMAD reporter (RDSR) cell line was generated by stably integrating the SMAD reporter plasmid (Promega, pGL4.48[luc2P/SBE/Hygro]) into the human rhabdomyosarcoma cell line RD (ATCC, CCL-136).
RDSR cells were seeded in DMEM (ATCC30-2002)+10% FBS in 96-well plate and allowed to grow overnight at 5% CO2 and 37° C. The next day, cells were pre-treated with Compound 04, Compound 01 or vactosertib at various concentrations, or with vehicle (DMSO), for one hour. Cells were then stimulated with recombinant human TGF-β1 (R&D Systems 7754-BH-005) at a final concentration of 100 ng/ml, in the presence of Compound 04, Compound 01, vactosertib, or DMSO for thirty minutes. A no-TGF-β1 stimulation condition was included for baseline phospho-SMAD2 level measurement.
The phospho-SMAD2 levels were determined using the Bio-Plex Pro™ Phospho-Smad2 (Ser465/Ser467) bead/antibody set (BioRad 171V50019M). Phospho-SMAD2 levels were normalized to ß-tubulin (MILLIPLEX MAP ß-Tubulin Total Magnetic Bead MAPmate™, Millipore 46-713MAG) or GAPDH (MILLIPLEX MAP GAPDH Total Magnetic Bead MAPmate™, Millipore 46-667MAG) levels from each sample. All samples were analyzed in a multiplex fashion with the Bio-Plex Pro Cell Signaling Reagent Kit (BioRad 171304006M). […] Bead suspension was analyzed using the Luminex system (MAGPIX). […]

The subject of data set [3] is TGF-β1-mediated αSMA expression. In words: Fibroblast to myofibroblast transformation (FMT) assay. The note with it: for IC50: Homo sapiens, Fibroblast; for inhibition of TGF-β1-mediated αSMA expression: all three IPF donors; for loss of nuclei: donor IPF03, highest test concentration (10 μM); for Potentially toxic concentration: lowest concentration with >25% loss of nuclei; for modulation of the number of nuclei: donors IPF06 and IPF08.
Procedure: To test the ability of selected compounds to inhibit the TGF-β1-dependent transition of fibroblasts to myofibroblasts in a relevant disease model of IPF, an FMT assay was performed using lung fibroblasts from IPF patients. In this assay, the transition of fibroblasts to myofibroblasts is determined by the expression of the biomarker alpha smooth muscle actin (α-SMA).
Primary human bronchial fibroblasts derived from IPF patients were seeded on day zero and the media was refreshed on day two. On day five, selected compounds or controls were added at an eight-point concentration response curve starting at 10 μM (semi-log dilutions). Each drug concentration condition was evaluated in biological duplicates. […] Seventy-two hours following TGF-beta addition, the cells were fixed with formaldehyde. High content imaging evaluating cell number using the nuclear stain DAPI as well as the expression of a-SMA was performed. The following controls were run alongside the selected compounds: vactosertib and the approved IPF drug nintedanib (at an eight-point, semi-log curve with 10 μM starting concentration). As a negative control 0.1% DMSO was also used, matching the DMSO concentration in treated wells. The following calculations were used to determine cell number as well as percent inhibition (PIN) of alpha SMA expression:
• Segmentation and quantification of αSMA immunoreactivity by an HCA algorithm, with density×area (D×A) output • Data normalization of raw αSMA (D×A) to percentage inhibition (PIN) values, on a plate-to-plate basis
• DAPI fluorescence applied for HCA-based quantification of the number of imaged cells, on a plate-to-plate basis
[formula] • μn is the average numbers of nuclei of the vehicle control (TGF-β1+0.1% DMSO) • Xi is the compound number of nuclei

The mark [4] stands for this setting: read-out: Average IC50 (nM), average of donors IPF03, IPF06, IPF08.
Setting [5] is: read-out: IC50 αSMA, donor IPF03.
Where [6] appears, read: read-out: IC50 αSMA, donor IPF06.
[7] abbreviates: read-out: IC50 αSMA, donor IPF08.
The mark [8] stands for this setting: read-out: pIC50 αSMA, donor IPF03 (converted).
The mark [9] stands for this setting: read-out: pIC50 αSMA, donor IPF06 (converted).
Setting [10] is: read-out: pIC50 αSMA, donor IPF08 (converted).

Structures are written as SMILES. Where two headings read alike, the source gives them in different places.

As to `Cc1nn(CC(F)(F)F)cc1Nc1cc(Nc2cnnc3c(C)cccc23)ccn1` [Compound 01, N2-[3-methyl-1-(2,2,2-trifluoroethyl)-1H-pyrazol-4-yl]-N4-(8-methylcinnolin-4-yl)pyridine-2,4-diamine], the “Average % p-SMAD2 (Ser 465/467) of vehicle” value (“Average % p-SMAD2” for short) turned out to be 97% in data set [1] (10 mg/kg per oral gavage), 33% in data set [1] (50 mg/kg per oral gavage), 13% in data set [1] (75 mg/kg per oral gavage) and 8% in data set [1] (100 mg/kg per oral gavage). Further, the “efficacious dose derived from p-SMAD2 inhibition in the A549 xenograft mouse model” value in data set [1] was “seventy-five”. For the same compound, the IC50 is below 200 nM in data set [2]; 83.3 nM in data set [3] (setting [4]); 100 nM in data set [3] (setting [5]); 100 nM in data set [3] (setting [6]); 50 nM in data set [3] (setting [7]); 100 nM in data set [3] (setting [8]). For the same compound, the IC50 in data set [3] (setting [9]) was 100 nM; in data set [3] (setting [10]), 50.1 nM. Also, in data set [3], the “inhibition of TGF-β1-mediated αSMA expression” value is “full concentration-dependent inhibition”. In addition, the entries for the “Max PIN (%)” value in data set [3] (donor IPF03), in data set [3] (donor IPF06) and in data set [3] (donor IPF08) were 106%, 107% and 101%, respectively. Further, in data set [3], the loss of nuclei was above 25%. In addition, the Potentially toxic concentration in data set [3] (donor IPF03) was 5.0. Besides, in data set [3], the “modulation of the number of nuclei” value is reported as “No modulation of the number of nuclei was observed”.

As to `Cc1cccc2c(Nc3ccnc(Nc4ccc(N5CCOCC5)cc4)c3)cnnc12` [Compound 05, N4-(8-methylcinnolin-4-yl)-N2-[4-(morpholin-4-yl)phenyl]pyridine-2,4-diamine], the “Average % p-SMAD2” value in data set [1] (10 mg/kg per oral gavage) was determined as 136%; in data set [1] (50 mg/kg per oral gavage), 74%; in data set [1] (75 mg/kg per oral gavage) it was 11%; in data set [1] (100 mg/kg per oral gavage), 13%. Besides, the IC50 in data set [3] (setting [4]) is 50 nM; in data set [3] (setting [5]), 60 nM; in data set [3] (setting [6]), 50 nM; in data set [3] (setting [7]), 40 nM; in data set [3] (setting [8]) it was 63.1 nM; in data set [3] (setting [9]) it was 50.1 nM. Further, the IC50 in data set [3] (setting [10]) is 39.8 nM. Moreover, the “Max PIN (%)” value in data set [3] (donor IPF03) came to 106%; in data set [3] (donor IPF06) it was 106%; in data set [3] (donor IPF08) it was 101%. In addition, the Potentially toxic concentration in data set [3] (donor IPF03) was determined as 5.0.

Take `Cc1cccc(-c2[nH]c(CNc3ccccc3F)nc2-c2ccc3ncnn3c2)n1` [Vactosertib, vactosertib, reference compound]: in data set [1] (75 mg/kg per oral gavage), the “Average % p-SMAD2” value is on record as 32%. Besides, the IC50 in data set [2] is below 200 nM; in data set [3] (setting [4]) it was 38.3 nM; in data set [3] (setting [5]), 50 nM; in data set [3] (setting [6]), 40 nM; in data set [3] (setting [7]), 25 nM; in data set [3] (setting [8]), 50.1 nM. The IC50 is 39.8 nM in data set [3] (setting [9]) and 25.1 nM in data set [3] (setting [10]). Moreover, the “Max PIN (%)” value was 105% in data set [3] (donor IPF03), 104% in data set [3] (donor IPF06) and 102% in data set [3] (donor IPF08).

For `Clc1cccc2c(Nc3ccnc(Nc4cccc(N5CCOCC5)c4)c3)cnnc12` [Compound 04, N4-(8-chlorocinnolin-4-yl)-N2-[3-(morpholin-4-yl)phenyl]pyridine-2,4-diamine], the “Average % p-SMAD2” value came to 69% in data set [1] (10 mg/kg per oral gavage), 13% in data set [1] (50 mg/kg per oral gavage), 6% in data set [1] (75 mg/kg per oral gavage) and 7% in data set [1] (100 mg/kg per oral gavage). In addition, the “efficacious dose derived from p-SMAD2 inhibition in the A549 xenograft mouse model” value in data set [1] is “fifty”. In addition, the “inhibition of the biomarker p-SMAD2” value in data set [1] (seventy-five milligrams per kilogram) is 94%. The IC50 is below 200 nM in data set [2]; 40 nM in data set [3] (setting [4]); 40 nM in data set [3] (setting [5]); 50 nM in data set [3] (setting [6]); 30 nM in data set [3] (setting [7]); 39.8 nM in data set [3] (setting [8]). Moreover, the IC50 is 50.1 nM in data set [3] (setting [9]) and 31.6 nM in data set [3] (setting [10]). The “inhibition of TGF-β1-mediated αSMA expression” value in data set [3] is “full concentration-dependent inhibition”. Further, the “Max PIN (%)” value in data set [3] (donor IPF03) is given as 107%; in data set [3] (donor IPF06), 106%; in data set [3] (donor IPF08), 100%. For the same compound, the loss of nuclei in data set [3] is below 25%. The “modulation of the number of nuclei” value in data set [3] is “No modulation of the number of nuclei was observed”.
